What all share (assay): relative viability (nuclei count vs DMSO), 5 days (fraction); higher = more cells survive
Compound in the experiment “Decitabine + Lapatinib”: Nc1ncn([C@H]2C[C@H](O)[C@@H](CO)O2)c(=O)n1 [Decitabine] + CS(=O)(=O)CCNCc1ccc(-c2ccc3ncnc(Nc4ccc(OCc5cccc(F)c5)c(Cl)c4)c3c2)o1 [Lapatinib] (partner 2 µM)
In short, it runs like this: (§1)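 Lung cancer cell lines were seeded in 1536-well plates and dosed by pin tool the next day, with either a single drug or a fixed anchor-drug dose combined with five library-drug doses (not always all listed) spaced in √10 steps. Five days later, one step fixed the cells and stained their nuclei (final 0.05% Triton X-100, 1% formaldehyde, 1 ug/ml Hoechst), and nuclei were counted on 4× images. Relative viability is the nuclei count in treated wells divided by the count in vehicle wells, and each value is the median of duplicate plates.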

Compound in the experiment “Decitabine + Pemetrexed”: Nc1ncn([C@H]2C[C@H](O)[C@@H](CO)O2)c(=O)n1 [Decitabine] + Nc1nc2[nH]cc(CCc3ccc(C(=O)N[C@@H](CCC(=O)O)C(=O)O)cc3)c2c(=O)[nH]1 [Pemetrexed] (partner 0.2 µM)
In short, it runs like this: as §1

Compound in experiment [1]: O=C(C[C@H]1NCCC[C@@H]1O)Cn1cnc2cc(Br)c(Cl)cc2c1=O (racemic) [Halofuginone] + CC1(C)CCC(c2ccc(Cl)cc2)=C(CN2CCN(c3ccc(C(=O)NS(=O)(=O)c4ccc(N[C@H](CCN5CCOCC5)CSc5ccccc5)c(S(=O)(=O)C(F)(F)F)c4)cc3)CC2)C1 [Navitoclax] (partner 0.5 µM)
In short, it runs like this: as §1

Compound in the experiment “Cediranib + Bortezomib”: COc1cc2c(Oc3ccc4[nH]c(C)cc4c3F)ncnc2cc1OCCCN1CCCC1 [Cediranib] + CC(C)C[C@H](NC(=O)[C@H](Cc1ccccc1)NC(=O)c1cnccn1)B(O)O [Bortezomib] (partner 0.002 µM)
A digest of the protocol: as §1

In the supplement of paper PMC10307832 one finds relative viability data, which are given here for six cell lines.

Take NCI-H3122: the relative viability with Decitabine + Lapatinib (first compound 0.04 µM) stood at 1.05; in the experiment with Decitabine + Lapatinib (first compound 0.1265 µM), 1.03; with Decitabine + Lapatinib (first compound 0.4 µM) it was 1.02; with Decitabine + Lapatinib (first compound 1.265 µM), 0.816; with Decitabine + Lapatinib (first compound 4 µM), 0.783; in the experiment with Decitabine + Pemetrexed (first compound 0.04 µM), 0.182. Also, the relative viability in the experiment with Decitabine + Pemetrexed (first compound 0.1265 µM) came to 0.179; in the experiment with Decitabine + Pemetrexed (first compound 0.4 µM), 0.121; with Decitabine + Pemetrexed (first compound 1.265 µM) it was 0.159; with Decitabine + Pemetrexed (first compound 4 µM) it was 0.185; in experiment [1] (first compound 0.001 µM), 0.994; in experiment [1] (first compound 0.003162 µM), 1.02. The relative viability in experiment [1] (first compound 0.01 µM) stood at 0.966; in experiment [1] (first compound 0.03162 µM), 1.01; in experiment [1] (first compound 0.1 µM), 1.05; in the experiment with Cediranib + Bortezomib (first compound 0.04 µM), 0.996; with Cediranib + Bortezomib (first compound 0.1265 µM), 0.967; with Cediranib + Bortezomib (first compound 0.4 µM) it was 1.01. For the same cell line, the relative viability amounted to 1.06 with Cediranib + Bortezomib (first compound 1.265 µM) and 1 with Cediranib + Bortezomib (first compound 4 µM).

As for PC-3 [JPC-3], the relative viability with Decitabine + Lapatinib (first compound 0.1265 µM) was determined as 0.467; with Decitabine + Lapatinib (first compound 0.4 µM), 0.269; with Decitabine + Lapatinib (first compound 1.265 µM), 0.421; in the experiment with Decitabine + Lapatinib (first compound 4 µM), 0.383; with Decitabine + Pemetrexed (first compound 0.1265 µM), 0.845; with Decitabine + Pemetrexed (first compound 0.4 µM) it was 0.439. Besides, the relative viability in the experiment with Decitabine + Pemetrexed (first compound 1.265 µM) is 0.528; with Decitabine + Pemetrexed (first compound 4 µM), 0.586; in experiment [1] (first compound 0.001 µM), 0.8; in experiment [1] (first compound 0.003162 µM), 0.792; in experiment [1] (first compound 0.01 µM), 0.805; in experiment [1] (first compound 0.03162 µM), 0.768. For the same cell line, the relative viability in experiment [1] (first compound 0.1 µM) amounted to 0.73; with Cediranib + Bortezomib (first compound 0.04 µM), 0.844; in the experiment with Cediranib + Bortezomib (first compound 0.1265 µM), 0.829; with Cediranib + Bortezomib (first compound 0.4 µM), 0.844; in the experiment with Cediranib + Bortezomib (first compound 1.265 µM) it was 0.924; in the experiment with Cediranib + Bortezomib (first compound 4 µM) it was 0.809.

Take PC-14: the relative viability in the experiment with Decitabine + Lapatinib (first compound 0.1265 µM) was found to be 0.297; in the experiment with Decitabine + Lapatinib (first compound 0.4 µM), 0.196; in the experiment with Decitabine + Lapatinib (first compound 1.265 µM), 0.226; with Decitabine + Lapatinib (first compound 4 µM) it was 0.228; with Decitabine + Pemetrexed (first compound 0.04 µM), 0.123; in the experiment with Decitabine + Pemetrexed (first compound 0.1265 µM) it was 0.0812. The relative viability turned out to be 0.0659 with Decitabine + Pemetrexed (first compound 0.4 µM); 0.0902 in the experiment with Decitabine + Pemetrexed (first compound 1.265 µM); 0.0856 with Decitabine + Pemetrexed (first compound 4 µM); 1.07 in experiment [1] (first compound 0.001 µM); 0.941 in experiment [1] (first compound 0.003162 µM); 0.963 in experiment [1] (first compound 0.01 µM). Also, the relative viability in experiment [1] (first compound 0.03162 µM) was 0.572; in experiment [1] (first compound 0.1 µM) it was 0.154; with Cediranib + Bortezomib (first compound 0.04 µM) it was 0.889; with Cediranib + Bortezomib (first compound 0.1265 µM), 0.831; in the experiment with Cediranib + Bortezomib (first compound 0.4 µM), 0.734; in the experiment with Cediranib + Bortezomib (first compound 1.265 µM), 0.878. The relative viability in the experiment with Cediranib + Bortezomib (first compound 4 µM) was 0.902.

In the case of RERF-LC-KJ, the relative viability was 0.804 in the experiment with Decitabine + Lapatinib (first compound 0.04 µM); 0.894 with Decitabine + Lapatinib (first compound 0.1265 µM); 0.704 with Decitabine + Lapatinib (first compound 0.4 µM); 0.717 with Decitabine + Lapatinib (first compound 1.265 µM); 0.656 with Decitabine + Lapatinib (first compound 4 µM); 0.441 with Decitabine + Pemetrexed (first compound 0.04 µM). In addition, the relative viability in the experiment with Decitabine + Pemetrexed (first compound 0.1265 µM) stood at 0.403; with Decitabine + Pemetrexed (first compound 0.4 µM) it was 0.215; with Decitabine + Pemetrexed (first compound 1.265 µM) it was 0.401; with Decitabine + Pemetrexed (first compound 4 µM), 0.369; in experiment [1] (first compound 0.001 µM) it was 0.987; in experiment [1] (first compound 0.003162 µM), 1.11. Also, the relative viability turned out to be 1.05 in experiment [1] (first compound 0.01 µM); 0.905 in experiment [1] (first compound 0.03162 µM); 0.699 in experiment [1] (first compound 0.1 µM); 1.09 in the experiment with Cediranib + Bortezomib (first compound 0.04 µM); 1.04 with Cediranib + Bortezomib (first compound 0.4 µM); 1.11 with Cediranib + Bortezomib (first compound 1.265 µM). Moreover, the relative viability in the experiment with Cediranib + Bortezomib (first compound 4 µM) was 1.17.

Regarding SK-LU-1, the relative viability with Decitabine + Lapatinib (first compound 0.04 µM) is 0.66; with Decitabine + Lapatinib (first compound 0.1265 µM), 0.604; with Decitabine + Lapatinib (first compound 0.4 µM), 0.42; with Decitabine + Lapatinib (first compound 1.265 µM) it was 0.457; in the experiment with Decitabine + Lapatinib (first compound 4 µM), 0.38; with Decitabine + Pemetrexed (first compound 0.04 µM), 0.826. In addition, the relative viability with Decitabine + Pemetrexed (first compound 0.1265 µM) worked out at 0.754; with Decitabine + Pemetrexed (first compound 0.4 µM) it was 0.406; with Decitabine + Pemetrexed (first compound 1.265 µM), 0.513; in the experiment with Decitabine + Pemetrexed (first compound 4 µM), 0.49; in experiment [1] (first compound 0.001 µM), 0.821; in experiment [1] (first compound 0.003162 µM), 0.895. Moreover, the relative viability in experiment [1] (first compound 0.01 µM) was determined as 0.874; in experiment [1] (first compound 0.03162 µM), 1.42; in experiment [1] (first compound 0.1 µM), 0.275; with Cediranib + Bortezomib (first compound 0.04 µM), 1.22; with Cediranib + Bortezomib (first compound 0.1265 µM), 1.24; in the experiment with Cediranib + Bortezomib (first compound 0.4 µM), 1.13. Further, the relative viability in the experiment with Cediranib + Bortezomib (first compound 1.265 µM) was 0.956; with Cediranib + Bortezomib (first compound 4 µM), 1.17.

On to SW 1573, for which the relative viability with Decitabine + Lapatinib (first compound 0.04 µM) is 1.03; with Decitabine + Lapatinib (first compound 0.1265 µM), 0.993; with Decitabine + Lapatinib (first compound 0.4 µM) it was 1.05; in the experiment with Decitabine + Lapatinib (first compound 1.265 µM) it was 0.646; with Decitabine + Lapatinib (first compound 4 µM) it was 0.515; with Decitabine + Pemetrexed (first compound 0.04 µM), 0.812. The relative viability with Decitabine + Pemetrexed (first compound 0.1265 µM) worked out at 0.844; with Decitabine + Pemetrexed (first compound 0.4 µM), 0.87; with Decitabine + Pemetrexed (first compound 1.265 µM) it was 0.494; with Decitabine + Pemetrexed (first compound 4 µM), 0.323; in experiment [1] (first compound 0.001 µM), 1.03; in experiment [1] (first compound 0.003162 µM), 1.01. Also, the relative viability in experiment [1] (first compound 0.01 µM) turned out to be 0.921; in experiment [1] (first compound 0.03162 µM), 0.6; in experiment [1] (first compound 0.1 µM), 0.168; in the experiment with Cediranib + Bortezomib (first compound 0.04 µM), 1.1; in the experiment with Cediranib + Bortezomib (first compound 0.1265 µM), 1.04; with Cediranib + Bortezomib (first compound 0.4 µM), 0.899. Besides, the relative viability with Cediranib + Bortezomib (first compound 1.265 µM) came out at 1.05; in the experiment with Cediranib + Bortezomib (first compound 4 µM), 1.09.
